Experimental findings from patent EP0041488A1, “Therapeutically useful tetralin derivatives” (Arvidsson, Folke Lars-Erik, priority 1980, dated 1981) are described below.

Marks after values point to notes of the source that are not given here.

One assay has as its system central 5-HT receptors. Briefly: In-vivo determination of rat brain tryptophan hydroxylation (5-HTP formation) after reserpine pretreatment. Conditions: reserpine-pretreated rats; for "ED70%" for 5-HTP reduction: s.c., dose giving 70 % of the control 5-HTP level, similar values for limbic forebrain, striatum and hemispheral portions. The method, then:
b. In-vivo determination of rat brain tyrosine and tryptophan hydroxylation after reserpine pretreatment (biochemical DA- and 5-HT receptor activity).
The compounds under evaluation were tested biochemically for central DA- and 5-HT-receptor (pre- and/or postsynaptic) stimulating activity. The concept of this biochemical screening method is that a DA- or 5-HT-receptor agonist will stimulate the receptor and through regulatory feedback systems effect a decline-in tyrosine or tryptophan hydroxylating activity, respectively, and a subsequent reduction in the synthesis rate for DA and 5-HT in the presynaptic neuron. Dopa and 5-HTP formation. as determined after in-vivo inhibition of the aromatic L-amino acid decarboxylase with NSO 1015 (3-hydroxybenzylhydrazine hydrochloride) are taken as indirect measures of DA- and 5-HT-synthesis rates, respectively.
Rats (150-300 g) pretreated with reserpine (5 mg/kg, 18 h before) were given the compounds under evaluation. Gross behavioural observations (changes in motility, hindleg abduction etc; c.f. above) were made. Subsequent administration of NSD 1015, decapitation, brain dissection [cerpera striate, the limbic ferebrain and the remaining hemispheral portions (mainly cortex) of rat brain], homogenization, centrifugation, ion-exchange chromatography and spectro- fluorimetric measurements (all as described in detail by Wikström et al., J. Med. Chem., 21, 864-867, 1978 and references cited therein) gave the actual dopa and 5-HTP levels. Several doses (n=4-6) were tested for each compound and brain area. The dose of a compound giving 70 % of the control 5-HTP.level in the rat brain part was then estimated.

Another assay has as its system Male Wistar rats. In words: Hetero-sexual (masculine copulatory) behaviour in normal male rats. The assay is classed as in vivo, rat. Conditions: median. The method, then: (§1) Male Wistar rats (12 months old; sexually experienced) were injected i.p. every second day in a balanced order with different doses of the compounds dissolved in physiological saline and injected in a volume of 2 ml/kg. Testing was begun 15 min after the drug treatment.
(§2) Mating arenas were 50' cm diameter acrylic glass cages with wood shavings on the floor. The stimulus females were of Wistar strain, primed with estradiol benzoate . (20 µg/animal) 48 h prior to testing and progesterone ([…]/animal) 4-6 h before testing.
(§3) The occurrence of mounts, intromissions and ejaculations were scored by an experienced observer. The measures of masculine copulatory behavior further included mount latency and intromission latency which are time from introduction of the stimulus female to the first mount and first intromission respectively. A copulatory series includes the mounts and intromissions preceding an ejaculation. Ejaculatory latency is the time from the first .intromission in a copulatory series to the ejaculation terminating that series. The postejaculatory interval is the time from an ejaculation to the next intromission. Tests were terminated when the rat had achieved one ejaculation and started the second series of copulations, or, if the intromission latency was >15 min, the ejaculation latency was >30 min, or the postejaculatory interval was >15 min.

Another assay has as its system castrated male rats. Briefly: Sexual behaviour in castrated male rats (preliminary). The assay is classed as in vivo, rat. The method, then: as §1, §2, §3
Setting [1] is: subgroup 1 of biochemical potency.
[2] abbreviates: subgroup 3 of biochemical potency.

As for `CCCNC1CCc2cccc(O)c2C1` (stereo not shown) [Compound 15], the “"ED70%" for 5-HTP reduction” value in the assay with central 5-HT receptors worked out at 0.4 µmol/kg.
Take `CCCCN(CCC)C1CCc2cccc(O)c2C1` (stereo not shown) [Compound 21]: in the assay with central 5-HT receptors, the “"ED70%" for 5-HTP reduction” value came out at 0.5 µmol/kg. The “"ED70%"” value in the assay on central 5-HT receptors (setting [1]) was 0.01 to 1.0 µmol/kg.
As to `CCCN(CC)C1CCc2cccc(O)c2C1` (stereo not shown) [Compound 19], the “"ED70%" for 5-HTP reduction” value in the assay on central 5-HT receptors was 0.09 µmol/kg.
Turning to `CCCN(CCC)C1CCc2cccc(OC)c2C1` (racemic) [Compound 8, 2-(di-n-propylamino)-8-methoxytetralin], the “Mounts (number)” value was 0^* b) in the assay with Male Wistar rats (1 mg/kg i.p., 15 min after treatment, control 2); 1 with Male Wistar rats (2 mg/kg i.p., 15 min after treatment, control 2); 1^*** in the assay with Male Wistar rats (4 mg/kg i.p., 15 min after treatment, control 2); 0^** in the assay with Male Wistar rats (8 mg/kg i.p., 15 min after treatment, control 2); 0^*** in the assay on Male Wistar rats (16 mg/kg i.p., 15 min after treatment, control 2). Further, the Ejaculatory latency in the assay with Male Wistar rats (1 mg/kg i.p., 15 min after treatment, control 4.75) is given as 3.20 min; in the assay on Male Wistar rats (2 mg/kg i.p., 15 min after treatment, control 4.75), 2.65 min; with Male Wistar rats (4 mg/kg i.p., 15 min after treatment, control 4.75), 1.55^*** min; with Male Wistar rats (8 mg/kg i.p., 15 min after treatment, control 4.75), 0.45^*** min; in the assay on Male Wistar rats (16 mg/kg i.p., 15 min after treatment, control 4.75) it was 0.55^*** min. Besides, the Postejaculatory interval in the assay with Male Wistar rats (1 mg/kg i.p., 15 min after treatment, control 5.50) stood at 6.40 min; in the assay with Male Wistar rats (2 mg/kg i.p., 15 min after treatment, control 5.50), 5.05 min; with Male Wistar rats (4 mg/kg i.p., 15 min after treatment, control 5.50), 4.55 min; in the assay with Male Wistar rats (8 mg/kg i.p., 15 min after treatment, control 5.50), 5.05 min; with Male Wistar rats (16 mg/kg i.p., 15 min after treatment, control 5.50), 4.55 min. The “Intromissions (number)” value is on record as 8 with Male Wistar rats (1 mg/kg i.p., 15 min after treatment, control 9); 7^*** in the assay with Male Wistar rats (2 mg/kg i.p., 15 min after treatment, control 9); 3.5^*** with Male Wistar rats (4 mg/kg i.p., 15 min after treatment, control 9); 1.5^*** in the assay on Male Wistar rats (8 mg/kg i.p., 15 min after treatment, control 9); 1^*** with Male Wistar rats (16 mg/kg i.p., 15 min after treatment, control 9). Besides, the “castrated male rats that ejaculated” value with castrated male rats (8 mg/kg, out of 9 rats (of the 2 with intromissions), preliminary) was 1. In addition, the “castrated male rats that made intromissions” value with castrated male rats (8 mg/kg, out of 9 rats (of the 5 that mounted), preliminary) is reported as 2. The “castrated male rats that mounted the female” value in the assay with castrated male rats (8 mg/kg, out of 9 rats, none of 9 saline-treated showed any sexual activity, preliminary) came out at 5. Further, the “sexual activity of male rats rendered sexual inactive by castration” value in the assay on castrated male rats (preliminary experiments) was “became sexual active”. Moreover, in the assay on central 5-HT receptors, the “"ED70%" for 5-HTP reduction” value was 0.4 µmol/kg.
On to `CNC1CCc2cccc(O)c2C1` (stereo not shown) [Compound 14], for which, in the assay on central 5-HT receptors, the “"ED70%" for 5-HTP reduction” value is 1.5 to 10 µmol/kg.
The same measure, in the same setting: the figure for `CC(C)NC1CCc2cccc(O)c2C1` (stereo not shown) [Compound 17] is 8 µmol/kg.
On the same count and under the same terms, the figure for `CCCCN(CCCC)C1CCc2cccc(O)c2C1` (stereo not shown) [Compound 22] is 8 µmol/kg; for `CCCN(Cc1ccccc1)C1CCc2cccc(O)c2C1` (stereo not shown) [Compound 23] it is 3 µmol/kg; for `Oc1cccc2c1CC(N1CCCCC1)CC2` (stereo not shown) [Compound 24] it is less than 20 µmol/kg.
In the case of `CCCCN(CCCC)C1CCc2cccc(OC)c2C1` (stereo not shown) [Compound 10], the “"ED70%" for 5-HTP reduction” value in the assay with central 5-HT receptors was 25 µmol/kg. The “"ED70%"” value with central 5-HT receptors (setting [2]) is listed as “above 10 umol/kg”.
Consider `CCCCNC1CCc2cccc(O)c2C1` (stereo not shown) [Compound 16], for which the “"ED70%" for 5-HTP reduction” value in the assay with central 5-HT receptors was determined as 6 µmol/kg.
Consider `Br.CCCN(CCC)C1CCc2cccc(O)c2C1` (stereo not shown) [Compound 20, 2-(di-n-propylamino)-8-hydroxytetralin hydrobromide], for which, in the assay on Male Wistar rats (4 mg/kg i.p., second experiment (N 9), control 1), the “Mounts (number)” value was determined as 0. Moreover, the Ejaculatory latency in the assay with Male Wistar rats (4 mg/kg i.p., second experiment (N 9), control 1.80) is 0.25 min. The compound further registered a Postejaculatory interval in the assay on Male Wistar rats (4 mg/kg i.p., second experiment (N 9), control 4.45) of 4.75 min. Further, the “Intromissions (number)” value in the assay with Male Wistar rats (4 mg/kg i.p., second experiment (N 9), control 5) is 1^***. In addition, the “"ED70%" for 5-HTP reduction” value in the assay on central 5-HT receptors was 0.06 µmol/kg. Also, the “"ED70%"” value in the assay with central 5-HT receptors (setting [1]) lay in the range of 0.01 to 1.0 µmol/kg.
In the case of `CCCCCCCCNC1CCc2cccc(O)c2C1` (stereo not shown) [Compound 18], in the assay with central 5-HT receptors, the “"ED70%" for 5-HTP reduction” value was 50 µmol/kg. For the same compound, the “"ED70%"” value in the assay with central 5-HT receptors (setting [2]) is given as “above 10 umol/kg”.
In the case of `CCCN(CCC)C1CCc2cccc(OC)c2C1` (single isomer, unassigned; (-)) [(-)-8], the “Mounts (number)” value in the assay on Male Wistar rats (4 mg/kg i.p., 15 min after treatment, control 2, listed as (-)-8 · HCl) is on record as 0.5^*. In the assay on Male Wistar rats (4 mg/kg i.p., 15 min after treatment, control 4.75, listed as (-)-8 · HCl), the Ejaculatory latency is reported as 1.30^*** min. In the assay on Male Wistar rats (4 mg/kg i.p., 15 min after treatment, control 5.50, listed as (-)-8 · HCl), this compound registered a Postejaculatory interval of 5.65 min. In addition, the “Intromissions (number)” value in the assay with Male Wistar rats (4 mg/kg i.p., 15 min after treatment, control 9, listed as (-)-8 · HCl) is on record as 4.5^**. For the same compound, the “"ED70%" for 5-HTP reduction” value with central 5-HT receptors lay within 0.3 to 0.4 µmol/kg.
Take `CCCN(CCC)C1CCc2cccc(OC)c2C1` (single isomer, unassigned; (+)) [(+)-8]: the “Mounts (number)” value with Male Wistar rats (4 mg/kg i.p., 15 min after treatment, control 2, listed as (+)-8 · HCl) is 1^*. The Ejaculatory latency with Male Wistar rats (4 mg/kg i.p., 15 min after treatment, control 4.75, listed as (+)-8 · HCl) is on record as 1.05^*** min. This compound registered a Postejaculatory interval in the assay on Male Wistar rats (4 mg/kg i.p., 15 min after treatment, control 5.50, listed as (+)-8 · HCl) of 6.15 min. Further, the “Intromissions (number)” value with Male Wistar rats (4 mg/kg i.p., 15 min after treatment, control 9, listed as (+)-8 · HCl) is on record as 2^***. The “"ED70%" for 5-HTP reduction” value in the assay with central 5-HT receptors fell in the range of 0.2 to 0.4 µmol/kg.
